pIC50: −log10 of the molar value.
Tested on: not listed separately
Test: Inhibition of TPA-stimulated release of HB-EGF-AP fusion protein from HT-1080 transfectant
Format: cell-based
Conditions: Homo sapiens, 1 h, 60 nM TPA for 60 min, AP activity of culture supernatant at 405 nm
Experimental: Human fibrosarcoma HT-1080 transfectant expressing fusion protein of HB-EGF and human placental alkaline phosphatase (AP) were used for following tests.
The cultured transfectant was treated with Trypsin-EDTA solution, and suspended in Minimum Essential Medium without phenol red; supplemented with 10% FCS(hereinafter referred to as MEM) at the concentration of 1.0×10^5 cells/ml. Each 0.2 ml of the cell suspension was dispensed into individual wells of 96 well microplate, and incubated overnight in a CO2 incubator at 37° C. After the incubation, the culture supernatant was removed by suction and the wells were washed with 0.2 ml/well of phosphate buffered saline. The cells were pretreated with 0.1 ml/well of the test compound solution [dimethyl sulfoxide (hereinafter referred to as DMSO) solution was diluted to 100 times with MEM] for 30 min in a CO2 incubator at 37° C. Then the culture supernatant was removed by suction and cells were treated with 0.2 ml/well of TPA solution (120 μM of DMSO solution was diluted to 60 nM with MEM) containing the same concentration of the compound as pretreatment for 60 min in a CO2 incubator at 37° C. The cells pretreated with MEM and incubated with only the TPA solution containing no test compound were used as control.
After these treatments, each 0.1 ml of culture supernatant collected from each well and 0.1 ml of MEM as background were transferred to individual wells of new 96 well microplate and incubated at 65° C. for 10 min after plate sealing to inactivate endogenous AP in MEM and cells. 0.1 ml of the substrate solution (prepared by diluting an aqueous 100 mg/ml p-nitrophenyl phosphate solution prepared previously 100 times with 0.01% magnesium chloride/1 M diethanolamine before use) for AP was added to each well and incubated for 120 minutes at room temperature in the dark. The absorbance at a wavelength of 405 nm of each well was measured using a microplate reader.

Compound	pIC50
COc1ccc(S(=O)(=O)N2C[C@H](O)[C@@H](O)[C@H](O)[C@@H]2C(=O)NO)cc1 [Compound a, (2R,3R,4R,5S)-3,4,5-trihydroxy-1-(4′-methoxybenzenesulfonyl)-piperidine-2-carboxylic acid hydroxamide]	6.21
O=C(NO)[C@H]1[C@@H](O)[C@H](O)[C@H](O)CN1S(=O)(=O)c1ccc(Oc2ccccc2)cc1 [Compound e, (2R,3R,4R,5R)-3,4,5-trihydroxy-1-(4′-phenoxybenzenesulfonyl)-piperidine-2-carboxylic acid hydroxamide]	6.47
O=C(NO)[C@H]1[C@@H](O)[C@H](O)[C@@H](O)CN1S(=O)(=O)c1ccc(Oc2ccccc2)cc1 [Compound c, (2R,3R,4R,5S)-3,4,5-trihydroxy-1-(4′-phenoxybenzenesulfonyl)-piperidine-2-carboxylic acid hydroxamide]	6.46
CCOCCOc1ccc(S(=O)(=O)N2C[C@H](O)[C@@H](O)[C@H](O)[C@@H]2C(=O)NO)cc1 [Compound b, (2R,3R,4R,5S)-1-(4′-ethoxyethoxy-benzenesulfonyl)-3,4,5-trihydroxy-piperidine-2-carboxylic acid hydroxamide]	6.35
COc1ccc(S(=O)(=O)N2C[C@H](O)[C@@H](O)[C@@H](O)[C@@H]2C(=O)NO)cc1 [Compound d, (2R,3S,4R,5S)-3,4,5-trihydroxy-1-(4′-methoxybenzenesulfonyl)-piperidine-2-carboxylic acid hydroxamide]	5.80

Tested on: epidermal hyperplasia in male BALB/c mice
Test: TPA-induced epidermal hyperplasia on mouse dorsal skin (epidermal thickness)
Format: in vivo
Conditions: topical application in acetone 5 minutes, 24 hours and 48 hours after TPA; skin excised at 72 hours; FIG. 1
Experimental: After backs of male BALB/c mice were shaved, 10 μL of a TPA-acetone solution (0.1 mM) was applied to the dorsal skin surface in an area of about 1 cm^2. In the medicine-treated group, a volume of 20 μL of a solution prepared by dissolving the test compound in acetone was applied to the same area 5 minutes, 24 hours and 48 hours after TPA application. In the non-treated group, only TPA was applied. In the control group, acetone was applied instead of the TPA-acetone solution.
The mice were sacrificed and the skin tissues were excised 72 hours after TPA application. Then the tissues were fixed with formalin, the vertical sections including the center of the TPA- or acetone-treated area were prepared and embedded in paraffin according to the conventional method. And they were stained by hematoxylin-eosin after removing paraffin. The epidermal thickness was measured using a microscope.
In FIG. 1, the numeral in the ordinate represents the epidermal thickness (μm). A bar graph of TPA (-) represents the epidermal thickness of the control group and a bar graph of TPA represents the epidermal thickness of the non-treated group. The respective bar graphs of 1, 10 and 100 denote the epidermal thickness of the group wherein the test compound is administered at a dose of 1, 10 and 100 (μg/wound) of each test compound. […]

Compound	hyperplasia inhibitory activity (epidermal thickness)
O=C(NO)[C@H]1[C@@H](O)[C@H](O)[C@@H](O)CN1S(=O)(=O)c1ccc(Oc2ccccc2)cc1 [Compound c, (2R,3R,4R,5S)-3,4,5-trihydroxy-1-(4′-phenoxybenzenesulfonyl)-piperidine-2-carboxylic acid hydroxamide]	hyperplasia inhibitory activity

From patent US20050137221A1, “Novel azasugar derivative and drug containing the same as the active ingredient” (priority 2002, published 2005)
